Experimental data taken from patent publication US6903085B1, “Substituted piperidine compounds useful as modulators of chemokine receptor activity” (AstraZeneca, AB, priority 1999, dated 2005).
Where a name gives a salt, the structure may show the parent alone.

melting point | SMILES
145 °C | O=C(Cc1nc(-c2ccccn2)no1)NC1CCN(Cc2ccc(Cl)c(Cl)c2)CC1 [Example 359, N-[1-(3,4-Dichlorobenzyl)-4-piperidinyl]-2-[3-(2-pyridinyl)-1,2,4-oxadiazol-5-yl]acetamide]
132 °C | O=C(CCc1nc(-c2ccccn2)no1)NC1CCN(Cc2ccc(Cl)c(F)c2)CC1 [Example 363, N-[1-(4-Chloro-3-fluorobenzyl)-4-piperidinyl]-3-[3-(2-pyridinyl)-1,2,4-oxadiazol-5-yl]propanamide]
125 °C | Clc1ccc(CN2CCC(Nc3nc4ccccc4[nH]3)CC2)cc1Cl [Example 103, N-[1-(3,4-Dichlorobenzyl)-4-piperidinyl]-1H-benzimidazol-2-amine]
178 to 179 °C | COc1cccc(NC(=O)NC2CCN(Cc3ccc(Cl)c(Cl)c3)CC2)c1 [Example 106, N-[1-(3,4-Dichlorobenzyyl)-4-piperidinyl]-N′-(3-methoxyphenyl)urea]
150 °C | O=C(CCc1nc(-c2ccccn2)no1)NC1CCN(Cc2ccc(F)c(Cl)c2)CC1 [Example 362, N-[1-(3-Chloro-4-fluorobenzyl)-4-piperidinyl]-3-[3-(2-pyridinyl)-1,2,4-oxadiazol-5-yl]propanamide]
189 to 190 °C | O=C(Nc1ccc(Cl)c(Cl)c1)NC1CCN(Cc2ccc(Cl)c(Cl)c2)CC1 [Example 105, N-[1-(3,4-Dichlorobenzyl)-4-piperidinyl]-N′-(3,4-dichlorophenyl)urea]
274 to 276 °C | COc1cccc(NC(=O)CNC2CCN(Cc3ccc(Cl)c(Cl)c3)CC2)c1 (as salt: hydrochloride) [Example 104, 2-{[1-(3,4-Dichlorobenzyl)-4-piperidinyl]amino}-N-(3-methoxyphenyl)acetamide, dihydrochloride Salt]
> 250 °C | COc1ccc(CNC2CCN(Cc3ccc(Cl)c(Cl)c3)CC2)cc1 (as salt: hydrochloride) [Example 107, N-[1-(3,4-Dichlorobenzyl)-4-piperidinyl]-N-(4-methoxybenzyl)amine, dihydrochloride Salt]
155 °C | O=C(CCc1nc(-c2ccccn2)no1)NC1CCN(Cc2ccc(Cl)c(Cl)c2)CC1 [Example 102, N-[1-(3,4-Dichlorobenzyl)-4-piperidinyl]-3-[3-(2-pyridinyl)-1,2,4-oxadiazol-5-yl]propanamide]

Further lines, the compound ahead of its results:

SMILES | melting point
O=C(CCCC(=O)c1ccccc1)NC1CCN(Cc2ccc(Cl)c(Cl)c2)CC1 [Example 96, N-[1-(3,4-Dichlorobenzyl)-4-piperidinyl]-5-oxo-5-phenylpentanamide] | 130 °C
O=C(Cc1csc(-c2cnccn2)n1)NC1CCN(Cc2ccc(Cl)c(Cl)c2)CC1 [Example 100, N-[1-(3,4-Dichlorobenzyl)-4-piperidinyl]-2-[2-(2-pyrazinyl)-1,3-thiazol-4-yl]acetamide] | 186 to 189 °C
O=C(CSc1ccccc1)NC1CCN(Cc2ccc(Cl)c(Cl)c2)CC1 [Example 98] | 97 to 99 °C
O=C(CSc1ccc(C(F)(F)F)cn1)NC1CCN(Cc2ccc(Cl)c(Cl)c2)CC1 [Example 94, N-[1-(3,4-Dichlorobenzyl)-4-piperidinyl]-2-{[5-(trifluoromethyl)-2-pyridinyl]sulfanyl}acetamide] | 98 °C
Cc1c(CC(=O)NC2CCN(Cc3ccc(Cl)c(Cl)c3)CC2)cnn1-c1ccccc1 [Example 95, N-[1-(3,4-Dichlorobenzyl)-4-piperidinyl]-2-(5-methyl-1-phenyl-1H-pyrazol-4-yl)acetamide] | 165 °C
Cc1sc(-c2ccc(Cl)cc2)nc1CC(=O)NC1CCN(Cc2ccc(Cl)c(Cl)c2)CC1 [Example 97, 2-[2-(4-Chlorophenyl)-5-methyl-1,3-thiazol-4-yl]-N-[1-(3,4-dichlorobenzyl)-4-piperidinyl]acetamide] | 170 °C
O=C(Cc1ccc(F)cc1)NC1CCN(Cc2ccc(Cl)c(Cl)c2)CC1 [Example 99, N-[1-(3,4-Dichlorobenzyl)-4-piperidinyl]-2-(4-fluorophenyl)acetamide] | 144 to 147 °C
O=C(CSc1ncc(-c2ccccc2)cn1)NC1CCN(Cc2ccc(Cl)c(Cl)c2)CC1 [Example 101, N-[1-(3,4-Dichlorobenzyl)-4-piperidinyl]-2-[(5-phenyl-2-pyrimidinyl)sulfanyl]acetamide] | 157 °C
